Measurements published in patent US20250270222A1, “AP2 ASSOCIATED KINASE 1 INHIBITORS AND USES THEREOF” (Satellos Bioscience Inc., priority 2023, published 2025).

How the values were obtained:
Type in all cases: biochemical
[1] = target: BIKE (amino acids S38-E345) (K320A, K321A) (Homo sapiens (Human), UniProt Q9NSY1, K320A/K321A); assay: BIKE pSENs assay
Description: (§1) The recombinant proteins were independently expressed in Esherichia coli BL21(DE3) cells cultured in Luria-Bertani (LB) medium until OD600 reached 0.6-0.8, then cooled to 15° C., and supplemented with 0.5 mM isopropyl 1-thio-D-galactopyranoside (IPTG) induce protein expression 16 h. Cells were harvested and resuspended in lysis buffer (50 mM HEPES pH 7.5, 500 mM NaCl, 5 mM imidazole, 5% glycerol, 0.5 mM Tris (2-carboxyethyl) phosphine (TCEP), cOmplete Protease Inhibitor Tablet (Roche)) and lysed by microfluidics high pressure homogenizer (UH-06, Union-Biotech). Proteins were purified using Ni-Affinity chromatography (His FF column, Bestchrom) and eluted stepwise in binding buffer with 20-300 mM imidazole. Removal of the hexahistidine tag was performed at 4° C. overnight using recombinant TEV protease and reacted with BirA to obtain the corresponding biotinylated-AAK1. BIKE or GAK proteins. Further separated in the reverse Strep column (Strep-Tactin® XT, IBA). The Biotin elution sample was collected containing untagged biotinylated protein was then purified by Ion-exchange chromatography (Mono Q 10/100 GL, Cytiva) and Size-exclusion chromatography (HiLoad 16/600 Superdex 200 pg, Cytiva). The pure protein was stored in a storage buffer 50 mM HEPES (pH 7.5), 300 mM NaCl, 5% glycerol at −80° C. Protein were characterized by SDS-PAGE. LC-MS and aSEC.
BIKE protein was dissolved at 20 nM in 1× enzyme solution (50 mM HEPES pH7.5, 10 mM MgCl2, 1 mM DTT, 1% glycerol, 0.5 mM EGTA, 0.01% Briji35, 0.02% BSA) and 12.5 ul was incubated with 250 nl DMSO or 250 nl compound in DMSO at 25° C. for 15 min. The reaction was started by addition of 12.5 ul of 30 uM AQT0759 (Assayquant, CSKS-AQT0759B) and 40 uM ATP which were diluted in 1× substrate dilution buffer (50 mM HEPES pH7.5, 10 mM MgCl2. 1 mM DTT, 1% glycerol, 0.5 mM EGTA, 0.01% Briji35).

[2] = target: GAK (amino acids Q25-N335) (Homo sapiens (Human), UniProt O14976); assay: GAK pSENs assay
Description: as §1
This example describes one illustrative method for determining the IC50 of the compounds of the present invention against GAK (amino acids Q25-N335).

[3] = target: AAK1 (amino acids T27-A365) (Homo sapiens (Human), UniProt Q2M2I8); assay: AAK1 pSENs assay; details: ratio of AAK1 pSENs activity to GAK pSENs activity
In short: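 Untagged, biotinylated E. coli-expressed AAK1 at 20 nM preincubated with compound 15 min at 25° C in HEPES pH 7.5 buffer with 10 mM MgCl2 and 1 mM DTT. Reaction started with AQT0759 and ATP, added as 30 uM and 70 uM solutions in equal volume.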

AAK1 (amino acids T27-A365), sequence (Q2M2I8 27-365): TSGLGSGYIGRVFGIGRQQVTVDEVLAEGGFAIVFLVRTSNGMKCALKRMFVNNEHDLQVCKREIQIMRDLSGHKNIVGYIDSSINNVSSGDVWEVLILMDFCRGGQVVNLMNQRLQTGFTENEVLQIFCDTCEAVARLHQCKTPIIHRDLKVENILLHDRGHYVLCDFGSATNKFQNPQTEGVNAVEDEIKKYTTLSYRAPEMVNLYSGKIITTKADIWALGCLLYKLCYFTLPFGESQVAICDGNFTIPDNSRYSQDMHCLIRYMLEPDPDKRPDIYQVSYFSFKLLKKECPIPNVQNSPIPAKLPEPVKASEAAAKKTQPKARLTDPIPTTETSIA
BIKE (amino acids S38-E345) (K320A, K321A), sequence (Q9NSY1 38-345 K320A/K321A): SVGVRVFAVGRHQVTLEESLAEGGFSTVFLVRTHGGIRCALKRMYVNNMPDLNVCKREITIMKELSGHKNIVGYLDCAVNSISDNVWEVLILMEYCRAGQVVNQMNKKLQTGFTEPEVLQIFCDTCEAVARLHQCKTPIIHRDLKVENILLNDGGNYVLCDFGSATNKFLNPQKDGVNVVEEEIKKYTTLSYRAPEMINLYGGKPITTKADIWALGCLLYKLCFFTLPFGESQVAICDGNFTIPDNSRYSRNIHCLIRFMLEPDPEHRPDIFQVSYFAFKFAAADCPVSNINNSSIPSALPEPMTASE
GAK (amino acids Q25-N335), sequence (O14976 25-335): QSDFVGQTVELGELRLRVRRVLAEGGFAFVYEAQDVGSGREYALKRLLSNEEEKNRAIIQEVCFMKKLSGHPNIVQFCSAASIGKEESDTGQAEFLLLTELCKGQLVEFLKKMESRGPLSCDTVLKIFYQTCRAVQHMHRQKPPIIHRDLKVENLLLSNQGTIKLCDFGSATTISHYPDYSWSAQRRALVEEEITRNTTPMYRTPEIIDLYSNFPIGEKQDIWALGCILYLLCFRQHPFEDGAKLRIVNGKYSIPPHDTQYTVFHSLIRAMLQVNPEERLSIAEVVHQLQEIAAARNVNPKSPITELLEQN

Structure (SMILES) | IC50 [1] | IC50 [2] | AAK1:GAK pSENs Selectivity [3]
CC1(OC(=O)N2CCN(c3ccn4ncc(-c5cccnc5OC5CCC5)c4n3)CC2)COC1 [Compound I-17, (3-Methyloxetan-3-yl) 4-[3-[2-(cyclobutoxy)-3-pyridyl]pyrazolo[1,5-a]pyrimidin-5-yl]piperazine-1-carboxylate] | > 1500 nM | > 1500 nM | B (B: 0.016-0.075)
CC1(OC(=O)N2CCN(c3ccn4ncc(-c5cccnc5OCC5CCC5)c4n3)CC2)COC1 [Compound I-19, 3-Methyloxetan-3-yl 4-(3-(2-(cyclobutylmethoxy)pyridin-3-yl)pyrazolo[1,5-a]pyrimidin-5-yl)piperazine-1-carboxylate] | > 1500 nM | > 1500 nM | D (D: 0.16-1.00)
CC1(OC(=O)N2CCN(c3ccn4ncc(-c5cccnc5OCC5COC5)c4n3)CC2)COC1 [Compound I-20] | > 1500 nM | – | D (D: 0.16-1.00)
CC(C)Oc1ncccc1-c1cnn2ccc(N3CCN(C(=O)O[C@@]4(C)CCNC4)CC3)nc12 [Compound I-21, [(3S)-3-Methylpyrrolidin-3-yl]4-[3-(2-isopropoxy-3-pyridyl)pyrazolo[1,5-a]pyrimidin-5-yl]piperazine-1-carboxylate] | > 1500 nM | – | B (B: 0.016-0.075)
O=C1NCC[C@H]1OC(=O)N1CCN(c2ccn3ncc(-c4cccnc4OC4CC4)c3n2)CC1 [Compound I-23, [(3R)-2-oxopyrrolidin-3-yl]-4-[3-[2-(cyclopropoxy)-3-pyridyl]pyrazolo[1,5-a]pyrimidin-5-yl]piperazine-1-carboxylate] | > 1500 nM | > 1500 nM | B (B: 0.016-0.075)
O=C1NCC[C@@H]1OC(=O)N1CCN(c2ccn3ncc(-c4cccnc4OC4CC4)c3n2)CC1 [Compound I-24, [(3S)-2-Oxopyrrolidin-3-yl]-4-[3-[2-(cyclopropoxy)-3-pyridyl]pyrazolo[1,5-a]pyrimidin-5-yl]piperazine-1-carboxylate] | > 1500 nM | > 1500 nM | B (B: 0.016-0.075)
O=C(O[C@@H]1CC(=O)N(C2CCNCC2)C1)N1CCN(c2ccn3ncc(-c4cccnc4OC4CC4)c3n2)CC1 [Compound I-33, (R)-5-Oxo-1-(piperidin-4-yl)pyrrolidin-3-yl 4-(3-(2-cyclopropoxypyridin-3-yl)pyrazolo[1,5-a]pyrimidin-5-yl)piperazine-1-carboxylate] | > 1500 nM | > 1500 nM | D (D: 0.16-1.00)
C[C@H]1CN(c2ccn3ncc(-c4cccnc4OC4CC4)c3n2)CCN1C(=O)O[C@@H]1CNC(=O)C1 [Compound I-40, [(3S)-5-Oxopyrrolidin-3-yl](2S)-4-[3-[2-(cyclopropoxy)-3-pyridyl]pyrazolo[1,5-a]pyrimidin-5-yl]-2-methyl-piperazine-1-carboxylate] | > 1500 nM | > 1500 nM | B (B: 0.016-0.075)
N#C[C@@H]1CN(c2ccn3ncc(-c4cccnc4OC4CC4)c3n2)CCN1C(=O)O[C@@H]1CNC(=O)C1 [Compound I-41, (S)-5-Oxopyrrolidin-3-yl (S)-2-cyano-4-(3-(2-cyclopropoxypyridin-3-yl)pyrazolo[1,5-a]pyrimidin-5-yl)piperazine-1-carboxylate] | > 1500 nM | > 1500 nM | B (B: 0.016-0.075)
O=C1C[C@H](OC(=O)N2CCN(c3ccn4ncc(-c5cccnc5OC5CC5)c4n3)C[C@H]2C(=O)O)CN1 [Compound I-41-4C, (S)-4-(3-(2-Cyclopropoxypyridin-3-yl)pyrazolo[1,5-a]pyrimidin-5-yl)-1-((((S)-5-oxopyrrolidin-3-yl)oxy)carbonyl)piperazine-2-carboxylic acid] | > 1500 nM | > 1500 nM | D (D: 0.16-1.00)
COC(=O)[C@@H]1CN(c2ccn3ncc(-c4cccnc4OC4CC4)c3n2)CCN1C(=O)O[C@@H]1CNC(=O)C1 [Compound I-41-5, 2-Methyl 1-((S)-5-oxopyrrolidin-3-yl) (S)-4-(3-(2-cyclopropoxypyridin-3-yl)pyrazolo[1,5-a]pyrimidin-5-yl)piperazine-1,2-dicarboxylate] | > 1500 nM | > 1500 nM | C (C: 0.076-0.15)
O=C1C[C@H](OC(=O)N2CCN(c3ccn4ncc(-c5cccnc5NC5CCC5)c4n3)CC2)CN1 [Compound I-46, [(3S)-5-oxopyrrolidin-3-yl]4-[3-[2-(cyclobutylamino)-3-pyridyl]pyrazolo[1,5-a]pyrimidin-5-yl]piperazine-1-carboxylate] | > 1500 nM | – | E (E: >1.00)
O=C1C[C@H](OC(=O)N2CCN(c3ccn4ncc(-c5cccnc5NC5CNC5)c4n3)CC2)CN1 [Compound I-49, (S)-5-oxopyrrolidin-3-yl 4-(3-(2-(azetidin-3-ylamino)pyridin-3-yl)pyrazolo[1,5a]pyrimidin-5-yl)piperazine-1-carboxylate] | > 1500 nM | – | –
C[C@@]1(OC(=O)N[C@H]2CCN(c3ccn4ncc(-c5cccnc5OC5CC5)c4n3)C2)CCNC1 [Compound I-57, (R)-3-methylpyrrolidin-3-yl ((S)-1-(3-(2-cyclopropoxypyridin-3-yl)pyrazolo[1,5-a]pyrimidin-5-yl)pyrrolidin-3-yl)carbamate] | > 1500 nM | – | C (C: 0.076-0.15)
O=C(O[C@H]1CO[C@H]2OCC[C@H]21)N1CCN(c2ccn3ncc(-c4cnccn4)c3n2)CC1 [Compound I-66, [(3aS,4R,6aR)-2,3,3a, 4,5,6a-hexahydrofuro[2,3-b]furan-4-yl]-4-(3-pyrazin-2-ylpyrazolo[1,5-a]pyrimidin-5-yl)piperazine-1-carboxylate] | > 1500 nM | – | D (D: 0.16-1.00)
[2H]C([2H])([2H])N1C[C@@H](OC(=O)N2CCN(c3nc4c(-c5cccnc5OC5CC5)cnn4cc3F)CC2)CC1=O [Compound I-116, [(3S)-5-oxo-1-(trideuteriomethyl)pyrrolidin-3-yl]4-[3-[2-(cyclopropoxy)-3-pyridyl]-6-fluoro-pyrazolo[1,5-a]pyrimidin-5-yl]piperazine-1-carboxylate] | – | > 1500 nM | A (A: ≤0.015)
[2H]C([2H])([2H])N1C[C@@H](OC(=O)N2CCN(c3nc4c(-c5cc(F)cnc5OC5CC5)cnn4cc3F)CC2)CC1=O [Compound I-118, [(3S)-5-oxo-1-(trideuteriomethyl)pyrrolidin-3-yl]4-[3-[2-(cyclopropoxy)-5-fluoro-3-pyridyl]-6-fluoro-pyrazolo[1,5-a]pyrimidin-5-yl]piperazine-1-carboxylate] | – | > 1500 nM | A (A: ≤0.015)
CN1C[C@@H](OC(=O)N2CCN(c3ccn4ncc(-c5cccnc5OC5CCOC5)c4n3)CC2)CC1=O (some centres unmarked) [Compound I-119] | – | > 1500 nM | B (B: 0.016-0.075)
CN1C[C@@H](OC(=O)N2CCN(c3nc4c(-c5cccnc5OC5CCOC5)cnn4cc3F)CC2)CC1=O (stereo partly drawn) [Compound I-120, [(3S)-1-methyl-5-oxo-pyrrolidin-3-yl]4-[6-fluoro-3-(2-tetrahydrofuran-3-yloxy-3-pyridyl)pyrazolo[1,5-a]pyrimidin-5-yl]piperazine-1-carboxylate] | – | > 1500 nM | B (B: 0.016-0.075)
CN1C[C@@H](OC(=O)N2CCN(c3nc4c(-c5cccnc5OC5CCCC5)cnn4cc3F)CC2)CC1=O [Compound I-121, [(3S)-1-methyl-5-oxo-pyrrolidin-3-yl]-4-[3-[2-(cyclopentoxy)-3-pyridyl]-6-fluoro-pyrazolo[1,5-a]pyrimidin-5-yl]piperazine-1-carboxylate] | – | > 1500 nM | B (B: 0.016-0.075)
CN1C[C@@H](OC(=O)N2CCN(c3nc4c(-c5cccnc5OC5CCOCC5)cnn4cc3F)CC2)CC1=O [Compound I-122] | – | > 1500 nM | A (A: ≤0.015)
